Reference: patent US7612064B2, “Sulfopyrroles” (Takeda Pharmaceutical Company Limited, priority 2003, dated 2009)

Experiments:
[1] = Hoechst 33342 nuclear staining; assay type: cell-based; details: for Hoechst 33342 nuclear staining score, H460: H460 cells; for Hoechst 33342 nuclear staining score, HeLa: HeLa cells; for Hoechst 33342 nuclear staining score, Jily: Jily cells; for Hoechst 33342 nuclear staining score, Jurkat: Jurkat cells; for Hoechst 33342 nuclear staining score, MRC5: MRC5 cells; as to Hoechst 33342 nuclear staining score, PBLs: key: 0: no activity; 1: weak activity comprising less than 50% of the cells; 2: strong activity comprising more than 50% of the cells;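 as to all read-outs here: apoptotic nuclei scored 0 none 1 weak under 50% of cells 2 strong over 50% of cells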
In short: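 Cells were plated in 96 well tissue culture plates in 80 μl complete medium, with 3-5*10^3 cells per well for adherent lines and 8-10*10^3 for suspension lines. Adherent cells spread for 24 h before treatment, while suspension cells were treated right after seeding. Compounds were added in 20 μl complete medium containing max 5% DMSO.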

HeLa = test: MTS proliferation assay; assay type: cell-based, human; details: 72 h
In short: (§1)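 Compounds at final 10/3/1/0.3 μM (added in complete medium, ≤5% DMSO); 72 h, culture conditions; + MTS, 3 h; A492.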

Jurkat = test: MTS proliferation assay; assay type: cell-based, human; details: 72 h
In short: as §1

MRC5 = test: MTS proliferation assay; assay type: cell-based; details: MRC5, 72 h
In short: as §1

Jily = test: MTS proliferation assay; assay type: cell-based; details: 72 h
In short: as §1

[2] = conc 0.1 (final concentrations in μM), 24 h or 48 h incubation
[3] = conc 0.3 (final concentrations in μM), 24 h or 48 h incubation
[4] = conc 1 (final concentrations in μM), 24 h or 48 h incubation
[5] = conc 3 (final concentrations in μM), 24 h or 48 h incubation
[6] = conc 10 (final concentrations in μM), 24 h or 48 h incubation

For COc1cc(-c2cc(-c3cccnc3)cn2S(=O)(=O)c2ccccc2)cc(OC)c1OC [Example 79], the “Hoechst 33342 nuclear staining score, H460” value ([1]; conc 0.1) was 0, the “Hoechst 33342 nuclear staining score, H460” value ([1]; conc 0.3) was 0 and the “Hoechst 33342 nuclear staining score, H460” value ([1]; conc 1) was 0. The “Hoechst 33342 nuclear staining score, H460” value ([1]; conc 3) was 0, the “Hoechst 33342 nuclear staining score, HeLa” value ([1]; conc 0.1) was 0 and the “Hoechst 33342 nuclear staining score, HeLa” value ([1]; conc 0.3) was 0. The “Hoechst 33342 nuclear staining score, HeLa” value ([1]; conc 1) was 0, the “Hoechst 33342 nuclear staining score, HeLa” value ([1]; conc 3) was 0 and the “Hoechst 33342 nuclear staining score, Jily” value ([1]; conc 0.1) was 0. The “Hoechst 33342 nuclear staining score, Jily” value ([1]; conc 0.3) was 0, the “Hoechst 33342 nuclear staining score, Jily” value ([1]; conc 1) was 0 and the “Hoechst 33342 nuclear staining score, Jily” value ([1]; conc 3) was 0. The “Hoechst 33342 nuclear staining score, Jurkat” value ([1]; conc 0.1) was 0, the “Hoechst 33342 nuclear staining score, Jurkat” value ([1]; conc 0.3) was 0 and the “Hoechst 33342 nuclear staining score, Jurkat” value ([1]; conc 1) was 0. The “Hoechst 33342 nuclear staining score, Jurkat” value ([1]; conc 3) was 0, the “Hoechst 33342 nuclear staining score, MRC5” value ([1]; conc 0.1) was 0 and the “Hoechst 33342 nuclear staining score, MRC5” value ([1]; conc 0.3) was 0. For the same compound, the “Hoechst 33342 nuclear staining score, MRC5” value ([1]; conc 1) was 0, the “Hoechst 33342 nuclear staining score, MRC5” value ([1]; conc 3) was 0 and the “Hoechst 33342 nuclear staining score, PBLs” value ([1]; conc 0.1) was 0. For the same compound, the “Hoechst 33342 nuclear staining score, PBLs” value ([1]; conc 0.3) was 0, the “Hoechst 33342 nuclear staining score, PBLs” value ([1]; conc 1) was 0 and the “Hoechst 33342 nuclear staining score, PBLs” value ([1]; conc 3) was 0. It also gave an IC50 (HeLa) greater than 1000 nM, an IC50 (Jurkat) of less than 1000 nM and an IC50 (MRC5) greater than 1000 nM. It also gave an IC50 (Jily) greater than 1000 nM.
In the case of COc1cc(-c2cc(-c3cccnc3)cn2S(=O)(=O)c2ccc(C(C)(C)C)cc2)cc(OC)c1OC [Example 83], the “Hoechst 33342 nuclear staining score, H460” value ([1]; conc 0.1) is reported as 0, the “Hoechst 33342 nuclear staining score, H460” value ([1]; conc 0.3) is reported as 0 and the “Hoechst 33342 nuclear staining score, H460” value ([1]; conc 1) is reported as 0. The “Hoechst 33342 nuclear staining score, H460” value ([1]; conc 3) was 0, the “Hoechst 33342 nuclear staining score, HeLa” value ([1]; conc 0.1) was 0 and the “Hoechst 33342 nuclear staining score, HeLa” value ([1]; conc 0.3) was 0. The “Hoechst 33342 nuclear staining score, HeLa” value ([1]; conc 1) was 0, the “Hoechst 33342 nuclear staining score, HeLa” value ([1]; conc 3) was 0 and the “Hoechst 33342 nuclear staining score, Jily” value ([1]; conc 0.1) was 0. For the same compound, the “Hoechst 33342 nuclear staining score, Jily” value ([1]; conc 0.3) was 0, the “Hoechst 33342 nuclear staining score, Jily” value ([1]; conc 1) was 0 and the “Hoechst 33342 nuclear staining score, Jily” value ([1]; conc 3) was 0. For the same compound, the “Hoechst 33342 nuclear staining score, Jurkat” value ([1]; conc 0.1) was 0, the “Hoechst 33342 nuclear staining score, Jurkat” value ([1]; conc 0.3) was 0 and the “Hoechst 33342 nuclear staining score, Jurkat” value ([1]; conc 1) was 0. For the same compound, the “Hoechst 33342 nuclear staining score, Jurkat” value ([1]; conc 3) was 0, the “Hoechst 33342 nuclear staining score, MRC5” value ([1]; conc 0.1) was 0 and the “Hoechst 33342 nuclear staining score, MRC5” value ([1]; conc 0.3) was 0. The “Hoechst 33342 nuclear staining score, MRC5” value ([1]; conc 1) was 0, the “Hoechst 33342 nuclear staining score, MRC5” value ([1]; conc 3) was 0 and the “Hoechst 33342 nuclear staining score, PBLs” value ([1]; conc 0.1) was 0. The “Hoechst 33342 nuclear staining score, PBLs” value ([1]; conc 0.3) was 0, the “Hoechst 33342 nuclear staining score, PBLs” value ([1]; conc 1) was 0 and the “Hoechst 33342 nuclear staining score, PBLs” value ([1]; conc 3) was 0. It also gave an IC50 (HeLa) greater than 1000 nM, an IC50 (Jurkat) greater than 1000 nM and an IC50 (MRC5) greater than 1000 nM. The IC50 (Jily) was greater than 1000 nM.
In the case of CCCCOc1ccc(S(=O)(=O)n2cc(-c3cccnc3)cc2-c2cc(OC)c(OC)c(OC)c2)cc1 [Example 78], the “Hoechst 33342 nuclear staining score, H460” value ([1]; conc 0.1) is reported as 0, the “Hoechst 33342 nuclear staining score, H460” value ([1]; conc 0.3) is reported as 0 and the “Hoechst 33342 nuclear staining score, H460” value ([1]; conc 1) is reported as 0. For the same compound, the “Hoechst 33342 nuclear staining score, H460” value ([1]; conc 3) was 0, the “Hoechst 33342 nuclear staining score, HeLa” value ([1]; conc 0.1) was 0 and the “Hoechst 33342 nuclear staining score, HeLa” value ([1]; conc 0.3) was 0. For the same compound, the “Hoechst 33342 nuclear staining score, HeLa” value ([1]; conc 1) was 0, the “Hoechst 33342 nuclear staining score, HeLa” value ([1]; conc 3) was 0 and the “Hoechst 33342 nuclear staining score, Jily” value ([1]; conc 0.1) was 0. The “Hoechst 33342 nuclear staining score, Jily” value ([1]; conc 0.3) was 0, the “Hoechst 33342 nuclear staining score, Jily” value ([1]; conc 1) was 0 and the “Hoechst 33342 nuclear staining score, Jily” value ([1]; conc 3) was 0. For the same compound, the “Hoechst 33342 nuclear staining score, Jurkat” value ([1]; conc 0.1) was 0, the “Hoechst 33342 nuclear staining score, Jurkat” value ([1]; conc 0.3) was 0 and the “Hoechst 33342 nuclear staining score, Jurkat” value ([1]; conc 1) was 0. The “Hoechst 33342 nuclear staining score, Jurkat” value ([1]; conc 3) was 0, the “Hoechst 33342 nuclear staining score, MRC5” value ([1]; conc 0.1) was 0 and the “Hoechst 33342 nuclear staining score, MRC5” value ([1]; conc 0.3) was 0. The “Hoechst 33342 nuclear staining score, MRC5” value ([1]; conc 1) was 0, the “Hoechst 33342 nuclear staining score, MRC5” value ([1]; conc 3) was 0 and the “Hoechst 33342 nuclear staining score, PBLs” value ([1]; conc 0.1) was 0. The “Hoechst 33342 nuclear staining score, PBLs” value ([1]; conc 0.3) was 0, the “Hoechst 33342 nuclear staining score, PBLs” value ([1]; conc 1) was 0 and the “Hoechst 33342 nuclear staining score, PBLs” value ([1]; conc 3) was 0. For the same compound, the IC50 (HeLa) was greater than 1000 nM, the IC50 (Jurkat) was greater than 1000 nM and the IC50 (MRC5) was greater than 1000 nM.
In the case of CCN1CCN(CCCNCc2cc(-c3ccc4c(c3)OCO4)n(S(=O)(=O)c3ccc(C)cc3)c2)CC1 [Example 29], the “Hoechst 33342 nuclear staining score, HeLa” value [1, 2] is reported as 0, the “Hoechst 33342 nuclear staining score, HeLa” value [1, 3] is reported as 0 and the “Hoechst 33342 nuclear staining score, HeLa” value [1, 4] is reported as 0. For the same compound, the “Hoechst 33342 nuclear staining score, HeLa” value [1, 5] was 0, the “Hoechst 33342 nuclear staining score, Jurkat” value [1, 2] was 0 and the “Hoechst 33342 nuclear staining score, Jurkat” value [1, 3] was 0. The “Hoechst 33342 nuclear staining score, Jurkat” value [1, 4] was 0, the “Hoechst 33342 nuclear staining score, Jurkat” value [1, 5] was 0 and the IC50 (HeLa) was greater than 1000 nM. The IC50 (Jurkat) was greater than 1000 nM and the IC50 (MRC5) was greater than 1000 nM.
In the case of Cc1ccc(S(=O)(=O)n2cc(CNc3ccc(N4CCOCC4)c(Cl)c3)cc2-c2ccc3c(c2)OCO3)cc1 [Example 38], the “Hoechst 33342 nuclear staining score, HeLa” value [1, 3] is reported as 0, the “Hoechst 33342 nuclear staining score, HeLa” value [1, 4] is reported as 0 and the “Hoechst 33342 nuclear staining score, HeLa” value [1, 5] is reported as 0. The “Hoechst 33342 nuclear staining score, HeLa” value [1, 6] was 0, the “Hoechst 33342 nuclear staining score, Jurkat” value [1, 3] was 0 and the “Hoechst 33342 nuclear staining score, Jurkat” value [1, 4] was 0. The “Hoechst 33342 nuclear staining score, Jurkat” value [1, 5] was 0, the “Hoechst 33342 nuclear staining score, Jurkat” value [1, 6] was 0 and the IC50 (HeLa) was greater than 1000 nM. The IC50 (Jurkat) was greater than 1000 nM and the IC50 (MRC5) was greater than 1000 nM.
For Cc1ccc(S(=O)(=O)n2cc(CNCCN3CCCC3)cc2-c2ccc3c(c2)OCO3)cc1 [Example 17], the “Hoechst 33342 nuclear staining score, HeLa” value [1, 2] was 0, the “Hoechst 33342 nuclear staining score, HeLa” value [1, 3] was 0 and the “Hoechst 33342 nuclear staining score, HeLa” value [1, 4] was 0. The “Hoechst 33342 nuclear staining score, HeLa” value [1, 5] was 0, the “Hoechst 33342 nuclear staining score, Jurkat” value [1, 2] was 0 and the “Hoechst 33342 nuclear staining score, Jurkat” value [1, 3] was 0. The “Hoechst 33342 nuclear staining score, Jurkat” value [1, 4] was 0, the “Hoechst 33342 nuclear staining score, Jurkat” value [1, 5] was 0 and the IC50 (HeLa) was greater than 1000 nM. It also gave an IC50 (Jurkat) greater than 1000 nM and an IC50 (MRC5) greater than 1000 nM.
With Cc1ccc(S(=O)(=O)n2cc(-c3ccc(C#N)cc3)cc2-c2ccc3c(c2)OCO3)cc1 [Example 48] the “Hoechst 33342 nuclear staining score, HeLa” value [1, 2] was 0, the “Hoechst 33342 nuclear staining score, HeLa” value [1, 3] was 0 and the “Hoechst 33342 nuclear staining score, HeLa” value [1, 4] was 0. The “Hoechst 33342 nuclear staining score, HeLa” value [1, 5] was 0, the “Hoechst 33342 nuclear staining score, Jurkat” value [1, 2] was 0 and the “Hoechst 33342 nuclear staining score, Jurkat” value [1, 3] was 0. The “Hoechst 33342 nuclear staining score, Jurkat” value [1, 4] was 0, the “Hoechst 33342 nuclear staining score, Jurkat” value [1, 5] was 0 and the IC50 (HeLa) was greater than 1000 nM. For the same compound, the IC50 (Jurkat) was greater than 1000 nM and the IC50 (MRC5) was greater than 1000 nM.
In the case of Cc1ccc(S(=O)(=O)n2cc(CN(C)C3CCN(Cc4ccccc4)C3)cc2-c2ccc3c(c2)OCO3)cc1 (stereo not drawn) [Example 25], the “Hoechst 33342 nuclear staining score, HeLa” value [1, 2] is reported as 0, the “Hoechst 33342 nuclear staining score, HeLa” value [1, 3] is reported as 0 and the “Hoechst 33342 nuclear staining score, HeLa” value [1, 4] is reported as 0. For the same compound, the “Hoechst 33342 nuclear staining score, HeLa” value [1, 5] was 1 (weak activity comprising less than 50% of the cells), the “Hoechst 33342 nuclear staining score, Jurkat” value [1, 2] was 0 and the “Hoechst 33342 nuclear staining score, Jurkat” value [1, 3] was 0. The “Hoechst 33342 nuclear staining score, Jurkat” value [1, 4] was 0, the “Hoechst 33342 nuclear staining score, Jurkat” value [1, 5] was 0 and the IC50 (HeLa) was greater than 1000 nM. The IC50 (Jurkat) was greater than 1000 nM and the IC50 (MRC5) was greater than 1000 nM.
